Our source for the TGI and GI50 values is PubChem BioAssay (NCI).

“And” between values parts separate entries of the source, which are not always exact repeats. Identical values can stand only once.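 How tested: cells in 96-well plates exposed to compound for 48 hours at five concentrations. The concentration for 50% growth inhibition is given as GI50. TGI is the concentration that stops growth completely.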 Where a SMILES comes first, the peptide text is derived from it. [ ]: non-standard residue; d: D form. The star is where a group is joined. ξ: configuration not given here. NMeY = CN[C@@H](Cc1ccc(O)cc1)C(=O)O; Cbz = O=C(OCc1ccccc1)*; ξA = CC(N)C(=O)O

Some test systems named below: ACHN renal; EKVX NSCLC; HOP-92 NSCLC; HT29 colon; MALME-3M melanoma; MDA-MB-231 breast; SF-539 CNS; SK-MEL-2 melanoma.
Holding throughout (experiment): NCI tumour cell line growth inhibition, 48 h

For the molecule `Cc1ccc(-c2cc(-c3ccc(Cl)cc3)nc(/N=C3\C(=O)N(CN4CCCCC4)c4ccc(Cl)cc43)n2)cc1`, the TGI in the assay on ACHN renal is 92.5 µM; with EKVX NSCLC, more than 100 µM; with HOP-92 NSCLC, 51.2 µM; with HT29 colon, more than 100 µM; in the assay with MALME-3M melanoma, more than 100 µM; in the assay on MDA-MB-231 breast, more than 100 µM. The TGI in the assay on SF-539 CNS worked out at 61.5 µM; in the assay on SK-MEL-2 melanoma, 39.3 µM.

In the case of `COc1ccc(C2CC(c3c(C)nn(-c4ccccc4)c3-c3ccc(C)cc3O)=NN2c2ccccc2)cc1` (stereo not given), the TGI is more than 67.4 µM with ACHN renal; more than 100 µM with EKVX NSCLC; more than 100 µM in the assay with HOP-92 NSCLC; more than 44 µM in the assay with HT29 colon; more than 100 µM with MALME-3M melanoma; more than 100 µM in the assay with MDA-MB-231 breast. Besides, the values for the TGI in the assay with SF-539 CNS and with SK-MEL-2 melanoma were more than 100 µM and more than 52.3 µM, respectively.

Consider `O=[N+]([O-])c1ccc2nc3ccc([N+](=O)[O-])cn3c2c1`, for which the TGI in the assay on ACHN renal, with EKVX NSCLC, with HOP-92 NSCLC, in the assay with HT29 colon, in the assay with MALME-3M melanoma and with MDA-MB-231 breast was more than 100 µM throughout. In addition, the TGI in the assay with SF-539 CNS and in the assay with SK-MEL-2 melanoma was more than 100 µM throughout.

With `O=C(C[C@@H]1NCCC[C@H]1O)Cn1cnc2cc(Br)c(Cl)cc2c1=O`, the TGI in the assay on ACHN renal was 1.21 µM; in the assay on EKVX NSCLC, 0.803 µM; in the assay on HOP-92 NSCLC, 0.11 µM; in the assay on HT29 colon it was 0.191 µM; with MALME-3M melanoma, 0.144 µM; with MDA-MB-231 breast, 0.285 µM. Besides, the TGI in the assay on SF-539 CNS was found to be 0.347 µM; with SK-MEL-2 melanoma, 0.05 µM.

As for `Cc1ccc(S(=O)(=O)Nn2c(-c3ccccc3)c(C#N)c(-c3ccc([N+](=O)[O-])cc3)c(C#N)c2=O)cc1`, the TGI with ACHN renal, in the assay on EKVX NSCLC, with HOP-92 NSCLC, with HT29 colon, in the assay on MALME-3M melanoma and in the assay with MDA-MB-231 breast was more than 100 µM throughout. The TGI in the assay with SF-539 CNS and in the assay on SK-MEL-2 melanoma was more than 100 µM throughout.

Regarding `CN(C)c1ccc(/C=C(\NC(=O)c2ccccc2)C(=O)Nc2ccccc2C(=O)NN2C(=O)CSC2c2ccc(N(C)C)cc2)cc1` (stereo not given), the TGI in the assay with ACHN renal, in the assay with EKVX NSCLC, with HOP-92 NSCLC, with HT29 colon, in the assay on MALME-3M melanoma and in the assay on MDA-MB-231 breast was more than 100 µM throughout. Moreover, the TGI in the assay with SF-539 CNS and with SK-MEL-2 melanoma was more than 100 µM in each case.

With `O=C1C/C(=C\O)C(=O)c2ccccc2N1`, the TGI in the assay on ACHN renal, in the assay on EKVX NSCLC, in the assay with HOP-92 NSCLC, in the assay on HT29 colon, in the assay with MALME-3M melanoma and with MDA-MB-231 breast was more than 100 µM in each case. The TGI in the assay with SF-539 CNS and in the assay on SK-MEL-2 melanoma was more than 100 µM each time.

In the case of `O=C(c1ccccc1F)c1c(NCc2ccccc2)c(=O)c1=O`, the TGI with ACHN renal, in the assay with EKVX NSCLC, in the assay on HOP-92 NSCLC, in the assay on HT29 colon, in the assay with MALME-3M melanoma and with MDA-MB-231 breast was more than 100 µM in each case. Besides, the TGI with SF-539 CNS and in the assay on SK-MEL-2 melanoma was more than 100 µM each time.

Consider `Oc1ccc2ccccc2c1-c1nnc(CCCCCCCCc2nnc(-c3c(O)ccc4ccccc34)o2)o1`, for which the GI50 in the assay with ACHN renal was 1.28 µM; in the assay with EKVX NSCLC it was 6.7 µM; in the assay on HT29 colon it was 0.36 µM; in the assay on MALME-3M melanoma, 8.98 µM; with MDA-MB-231 breast, 0.583 µM; in the assay with SK-MEL-2 melanoma, 4.88 µM. For the same molecule, the TGI in the assay with ACHN renal was 25 µM and > 55.3 µM; in the assay on EKVX NSCLC, 25 µM and > 100 µM; in the assay on HOP-92 NSCLC it was more than 79 µM; with MALME-3M melanoma, 8.33 µM and 58.2 µM; in the assay with SF-539 CNS, 16.4 µM; with SK-MEL-2 melanoma, 25 µM and > 100 µM.

`CCOC(=O)CCC(NC(=O)OCc1ccccc1)C(=O)NNC(=O)OC(C)(C)C` (stereo not given): the TGI with ACHN renal, in the assay on EKVX NSCLC, in the assay on HOP-92 NSCLC, in the assay with HT29 colon, in the assay with MALME-3M melanoma and in the assay on MDA-MB-231 breast was more than 100 µM in each case. The TGI in the assay with SF-539 CNS and with SK-MEL-2 melanoma was more than 100 µM throughout.

As to `COc1ccccc1C(=O)c1c(N2CCCCC2)c(=O)c1=O`, the TGI with ACHN renal, with EKVX NSCLC, in the assay with HOP-92 NSCLC, in the assay on HT29 colon, in the assay with MALME-3M melanoma and in the assay on MDA-MB-231 breast was more than 100 µM throughout. The TGI with SF-539 CNS and with SK-MEL-2 melanoma was more than 100 µM each time.

Consider `COc1ccc(C[C@@H](C(=O)NCC(N)=O)N(C)C(=O)[C@@H]2CCCN2C(=O)[C@H](CC(C)C)NC(=O)C(C)NC(=O)OCc2ccccc2)cc1` (stereo not given in full) (Cbz-[ξA]LP[NMeY](Me)G-NH2), for which the TGI in the assay with ACHN renal, in the assay with EKVX NSCLC, with HOP-92 NSCLC, in the assay on HT29 colon, in the assay with MALME-3M melanoma and with MDA-MB-231 breast was more than 100 µM throughout. For the same molecule, the TGI with SF-539 CNS and with SK-MEL-2 melanoma was more than 100 µM in each case.
